Values after ≈ are worked out from the molar mass of the structure shown.
Test system: Mycobacterium tuberculosis H37Rv strains
Experiment: In vitro assay for antimicrobial susceptibility (microplate Alamar blue MIC)
Type: cell-based
Conditions: Mycobacterium tuberculosis, H37RV, in vitro, Mycobacterium tuberculosis H37Rv strains; read-out: MIC (μg/mL) against H37Rv

| Compound | MIC [µg/mL] |
| --- | --- |
| Cc1ccc(Nc2cc3nc4ccccc4n(-c4ccc(Br)cc4)c-3c/c2=N\C(C)C)cn1 [TBI-099, 5-(4-Bromophenyl)-3-(1-methylethyl)imino-2-(6-methyl-3-pyridyl)amino-3,5-dihydrophenazine] | 0.049 (≈ 0.0983 µM) |
| Cc1ccc(Nc2cc3nc4ccccc4n(-c4ccc(Br)cc4)c-3c/c2=N\C2CC2)cn1 [TBI-100, 5-(4-Bromophenyl)-3-cyclopropylimino-2-(6-methyl-3-pyridyl)amino-3,5-dihydrophenazine] | 0.011 (≈ 0.0222 µM) |
| CC(C)/N=c1\cc2n(-c3ccc(OC(F)(F)F)cc3)c3ccccc3nc-2cc1Nc1cccnc1 [TBI-157, 5-(4-Trifluoromethoxyphenyl)-3-(1-methylethyl)imino-2-(3-pyridyl)amino-3,5-dihydrophenazine] | 0.03 (≈ 0.0613 µM) |
| CC(C)CN1CCC(/N=c2\cc3n(-c4ccc(OC(F)(F)F)cc4)c4ccccc4nc-3cc2Nc2cccnc2)CC1 [TBI-158, 5-(4-Trifluoromethoxyphenyl)-3-(N-isobutyl-4-piperidyl)imino-2-(3-pyridyl)amino-3,5-dihydrophenazine] | 0.03 (≈ 0.0511 µM) |
| CN1CCC(/N=c2\cc3n(-c4ccc(OC(F)(F)F)cc4)c4ccccc4nc-3cc2Nc2cccnc2)CC1 [TBI-159, 5-(4-Trifluoromethoxyphenyl)-3-(N-methyl-4-piperidyl)imino-2-(3-pyridyl)amino-3,5-dihydrophenazine] | 0.25 (≈ 0.459 µM) |
| FC(F)(F)Oc1ccc(-n2c3c/c(=N\CCN4CCOCC4)c(Nc4cccnc4)cc-3nc3ccccc32)cc1 [TBI-160] | 0.125 (≈ 0.223 µM) |
| COC1CCC(/N=c2\cc3n(-c4ccc(OC(F)(F)F)cc4)c4ccccc4nc-3cc2Nc2cccnc2)CC1 (stereo not shown) [TBI-162, 5-(4-Trifluoromethoxyphenyl)-3-(4-methoxycyclohexyl)imino-2-(3-pyridyl)amino-3,5-dihydrophenazine] | 0.03 (≈ 0.0536 µM) |
| FC(F)(F)Oc1ccc(-n2c3c/c(=N\C4CCN(C5CCCC5)CC4)c(Nc4cccnc4)cc-3nc3ccccc32)cc1 [TBI-163, 5-(4-Trifluoromethoxyphenyl)-3-(N-cyclopentyl-4-piperidyl)imino-2-(3-pyridyl)amino-3,5-dihydrophenazine] | 0.06 (≈ 0.1 µM) |
| COc1ncccc1Nc1cc2nc3ccccc3n(-c3ccc(OC(F)(F)F)cc3)c-2c/c1=N\C(C)C [TBI-164, 5-(4-Trifluoromethoxyphenyl)-3-(1-methylethyl)imino-2-(2-methoxy-3-pyridyl)amino-3,5-dihydrophenazine] | 0.028 (≈ 0.0539 µM) |
| COc1ncccc1Nc1cc2nc3ccccc3n(-c3ccc(OC(F)(F)F)cc3)c-2c/c1=N\C1CCN(CC(C)C)CC1 [TBI-165, 5-(4-Trifluoromethoxyphenyl)-3-(N-isobutyl-4-piperidyl)imino-2-(2-methoxy-3-pyridyl)amino-3,5-dihydrophenazine] | 0.016 (≈ 0.0259 µM) |
| COc1ncccc1Nc1cc2nc3ccccc3n(-c3ccc(OC(F)(F)F)cc3)c-2c/c1=N\C1CCOCC1 [TBI-167, 5-(4-Trifluoromethoxyphenyl)-3-(4-tetrahydropyranyl)imino-2-(2-methoxy-3-pyridyl)amino-3,5-dihydrophenazine] | 0.016 (≈ 0.0285 µM) |
| COc1ncccc1Nc1cc2nc3ccccc3n(-c3ccc(OC(F)(F)F)cc3)c-2c/c1=N\C1CCN(C)CC1 [TBI-168, 5-(4-Trifluoromethoxyphenyl)-3-(N-methyl-4-piperidyl)imino-2-(2-methoxy-3-pyridyl)amino-3,5-dihydrophenazine] | 0.109 (≈ 0.19 µM) |
| COc1ncccc1Nc1cc2nc3ccccc3n(-c3ccc(OC(F)(F)F)cc3)c-2c/c1=N\CCN1CCOCC1 [TBI-169, 5-(4-Trifluoromethoxyphenyl)-3-(2-morpholinoethyl)imino-2-(2-methoxy-3-pyridyl)amino-3,5-dihydrophenazine] | 0.06 (≈ 0.102 µM) |
| Cc1ccc(-n2c3c/c(=N\C(C)C)c(Nc4cccnc4)cc-3nc3ccccc32)cc1 [TBI-300, 5-(4-Methylphenyl)-3-(1-methylethyl)imino-2-(3-pyridyl)amino-3,5-dihydrophenazine] | 0.03 (≈ 0.0715 µM) |
| COC1CCC(/N=c2\cc3n(-c4ccc(C)cc4)c4ccccc4nc-3cc2Nc2cccnc2)CC1 (stereo not shown) [TBI-301, 5-(4-Methylphenyl)-3-(4-methoxycyclohexyl)imino-2-(3-pyridyl)amino-3,5-dihydrophenazine] | 0.06 (≈ 0.123 µM) |
| Cc1ccc(-n2c3c/c(=N\CCN4CCOCC4)c(Nc4cccnc4)cc-3nc3ccccc32)cc1 [TBI-302, 5-(4-Methylphenyl)-3-(2-morpholinoethyl)imino-2-(3-pyridyl)amino-3,5-dihydro-phenazine] | 0.125 (≈ 0.255 µM) |
| Cc1ccc(-n2c3c/c(=N\C4CCOCC4)c(Nc4cccnc4)cc-3nc3ccccc32)cc1 [TBI-303, 5-(4-Methylphenyl)-3-(4-tetrahydropyranyl)imino-2-(3-pyridinyl)amino-3,5-dihydrophenazine] | 0.03 (≈ 0.065 µM) |
| Cc1ccc(-n2c3c/c(=N\C4CCN(C)CC4)c(Nc4cccnc4)cc-3nc3ccccc32)cc1 [TBI-304, 5-(4-Methylphenyl)-3-(N-methyl-4-piperidyl)imino-2-(3-pyridinyl)amino-3,5-dihydro-phenazine] | 0.25 (≈ 0.527 µM) |
| Cc1ccc(-n2c3c/c(=N\C4CCN(CC(C)C)CC4)c(Nc4cccnc4)cc-3nc3ccccc32)cc1 [TBI-305, 5-(4-Methylphenyl)-3-(N-isobutyl-4-piperidyl)imino-2-(3-pyridyl)amino-3,5-dihydrophenazine] | 0.125 (≈ 0.242 µM) |

| Compound | MIC [µg/mL] |
| --- | --- |
| Cc1ccc(-n2c3c/c(=N\C4CCCCC4)c(Nc4ccc(C)nc4)cc-3nc3ccccc32)cc1 [TBI-306, 5-(4-Methylphenyl)-3-cyclohexylimino-2-(6-methyl-3-pyridyl)amino-3,5-dihydrophenazine] | 0.106 (≈ 0.224 µM) |
| Cc1ccc(-n2c3c/c(=N\C4CCN(C5CCCC5)CC4)c(Nc4cccnc4)cc-3nc3ccccc32)cc1 [TBI-307, 5-(4-Methylphenyl)-3-(N-cyclopentyl-4-piperidyl)imino-2-(3-pyridyl)amino-3,5-dihydrophenazine] | 0.125 (≈ 0.236 µM) |
| COc1ncccc1Nc1cc2nc3ccccc3n(-c3ccc(C)cc3)c-2c/c1=N\C(C)C [TBI-308, 5-(4-Methylphenyl)-3-(1-methylethyl)imino-2-(2-methoxy-3-pyridyl)amino-3,5-dihydrophenazine] | 0.125 (≈ 0.278 µM) |
| COc1ncccc1Nc1cc2nc3ccccc3n(-c3ccc(C)cc3)c-2c/c1=N\C1CCC(OC)CC1 (stereo not shown) [TBI-309, 5-(4-Methylphenyl)-3-(4-methoxycyclohexyl)imino-2-(2-methoxy-3-pyridyl)amino-3,5-dihydrophenazine] | 0.06 (≈ 0.115 µM) |
| COc1ncccc1Nc1cc2nc3ccccc3n(-c3ccc(C)cc3)c-2c/c1=N\C1CCOCC1 [TBI-310, 5-(4-Methylphenyl)-3-(4-tetrahydropyranyl)imino-2-(2-methoxy-3-pyridyl)amino-3,5-dihydrophenazine] | 0.03 (≈ 0.061 µM) |
| COc1ncccc1Nc1cc2nc3ccccc3n(-c3ccc(C)cc3)c-2c/c1=N\CCN1CCOCC1 [TBI-311, 5-(4-Methylphenyl)-3-(2-morpholinoethyl)imino-2-(2-methoxy-3-pyridyl)amino-3,5-dihydrophenazine] | 0.125 (≈ 0.24 µM) |
| Cc1ccc(-n2c3c/c(=N\C4CCCCC4)c(Nc4cccnc4C)cc-3nc3ccccc32)cc1 [TBI-312, 5-(4-Methylphenyl)-3-cyclohexylimino-2-(2-methyl-3-pyridyl)amino-3,5-dihydrophenazine] | 0.053 (≈ 0.112 µM) |
| COc1ncccc1Nc1cc2nc3ccccc3n(-c3ccc(C)cc3)c-2c/c1=N\C1CCN(C)CC1 [TBI-313, 5-(4-Methylphenyl)-3-(N-methyl-4-piperidyl)imino-2-(2-methoxy-3-pyridyl)amino-3,5-dihydrophenazine] | 0.016 (≈ 0.0317 µM) |
| COc1ncccc1Nc1cc2nc3ccccc3n(-c3ccc(C)cc3)c-2c/c1=N\C1CCN(CC(C)C)CC1 [TBI-314, 5-(4-Methylphenyl)-3-(N-isobutyl-4-piperidyl)imino-2-(2-methoxy-3-pyridyl)amino-3,5-dihydrophenazine] | 0.024 (≈ 0.0439 µM) |
| Cc1ccc(-n2c3c/c(=N\C(C)C)c(Nc4ccc(C)nc4)cc-3nc3ccccc32)cc1 [TBI-315, 5-(4-Methylphenyl)-3-(1-methylethyl)imino-2-(6-methyl-3-pyridyl)amino-3,5-dihydrophenazine] | 0.057 (≈ 0.131 µM) |
| COC1CCC(/N=c2\cc3n(-c4ccc(C)cc4)c4ccccc4nc-3cc2Nc2ccc(C)nc2)CC1 (stereo not shown) [TBI-316, 5-(4-Methylphenyl)-3-(4-methoxycyclohexyl)imino-2-(6-methyl-3-pyridyl)amino-3,5-dihydrophenazine] | 0.028 (≈ 0.0556 µM) |
| Cc1ccc(-n2c3c/c(=N\C4CCOCC4)c(Nc4ccc(C)nc4)cc-3nc3ccccc32)cc1 [TBI-317, 5-(4-Methylphenyl)-3-(4-tetrahydropyranyl)imino-2-(6-methyl-3-pyridyl)amino-3,5-dihydrophenazine] | 0.055 (≈ 0.116 µM) |
| Cc1ccc(-n2c3c/c(=N\CCN4CCOCC4)c(Nc4ccc(C)nc4)cc-3nc3ccccc32)cc1 [TBI-318, 5-(4-Methylphenyl)-3-(2-morpholinoethyl)imino-2-(6-methyl-3-pyridyl)amino-3,5-dihydrophenazine] | 0.087 (≈ 0.172 µM) |
| Cc1ccc(-n2c3c/c(=N\C4CCN(C)CC4)c(Nc4ccc(C)nc4)cc-3nc3ccccc32)cc1 [TBI-319, 5-(4-Methylphenyl)-3-(N-methyl-4-piperidyl)imino-2-(6-methyl-3-pyridyl)amino-3,5-dihydrophenazine] | 0.173 (≈ 0.354 µM) |
| Cc1ccc(-n2c3c/c(=N\C4CCN(CC(C)C)CC4)c(Nc4ccc(C)nc4)cc-3nc3ccccc32)cc1 [TBI-320, 5-(4-Methylphenyl)-3-(N-isobutyl-4-piperidyl)imino-2-(6-methyl-3-pyridyl)amino-3,5-dihydrophenazine] | 0.11 (≈ 0.207 µM) |
| Cc1ccc(-n2c3c/c(=N\C(C)C)c(Nc4cccnc4C)cc-3nc3ccccc32)cc1 [TBI-321, 5-(4-Methylphenyl)-3-(1-methylethyl)imino-2-(2-methyl-3-pyridyl)amino-3,5-dihydrophenazine] | 0.419 (≈ 0.966 µM) |
| COC1CCC(/N=c2\cc3n(-c4ccc(C)cc4)c4ccccc4nc-3cc2Nc2cccnc2C)CC1 (stereo not shown) [TBI-322, 5-(4-Methylphenyl)-3-(4-methoxycyclohexyl)imino-2-(2-methyl-3-pyridyl)amino-3,5-dihydrophenazine] | 0.092 (≈ 0.183 µM) |
| Cc1ccc(-n2c3c/c(=N\C4CCOCC4)c(Nc4cccnc4C)cc-3nc3ccccc32)cc1 [TBI-323, 5-(4-Methylphenyl)-3-(4-tetrahydropyranyl)imino-2-(2-methyl-3-pyridyl)amino-3,5-dihydrophenazine] | 0.057 (≈ 0.12 µM) |

Reference: patent US8716292B2, “Riminophenazines with 2-(heteroaryl)amino substituents and their anti-microbial activity” (priority 2010, dated 2014)
